For experiment [1], the system named is SQCC-Y1 human squamous carcinoma cells. Description: Cornified envelope (cross-linked protein) assay, SQCC-Y1 cells. The format is cell-based. Conditions: for cross-linked protein production by MC derivatives: SQCC-Y1 cells, FIG. 11, preliminary; for potency in cross-linking: of 15 aromatic compounds, FIG. 12.
The subject of experiment [2] is 308 and SQCC-Y1 cells. Nature of the experiment: Cross-linked protein envelopes by tyrosine kinase inhibitors (Table II). The format is cell-based. Conditions: concentrations within the range for inhibition of tyrosine kinases. The protocol:
(§1) The assay measures insoluble cross-linked protein envelopes as described (Hough-Monroe et al. Analytical biochem., 199, 25-28, 1991), with modifications as follows. Cornified envelopes were prepared by scraping monolayers into 2% sodium dodecylsulphate (SDS), 20 mM dithiothreitol (DTT) in phosphate buffered saline (PBS). Unattached cells were pelleted from medium and were resuspended in SDS/DTT and pooled with attached cells. Samples were boiled for 10 mins. Cornified envelope samples were examined under the microscope using phase contrast optics or were applied to an RC60 membrane (Schleicher and Schuell, Keene, N.H.) on a 96-well dot-blot apparatus attached to a vacuum. Samples were washed three times with SDS/DTT and the resultant protein spots on RC60 membrane were fixed and stained as described. Sports were excised and eluted with 1% NH3 OH concentrated solution, 66% methanol (200 ul) overnight. Absorbance of eluate was measured on a Titertek plate reader at 600 nm.
A range of tyrosine kinase inhibitors was tested for ability to produce cross-linked protein envelopes in 308 and SQCC-Y1 cells. All inhibitors were obtained commercially from LC Laboratories, Woburn, Mass. Concentrations used were within the range for inhibition of tyrosine kinases.

The test system of experiment [3] is primary mouse keratinocytes. Description: Cornified envelope (cross-linked protein) assay, primary mouse keratinocytes. The class given is cell-based. Conditions: 4° C. and 37° C., 48 hours. The protocol: FIGS. 3A and 3B. A: Time course for cornification of primary mouse keratinocytes in response to MC. Boxes represent […] Ca^2+, triangles represent 100 μM MC, 1.4 mM Ca^2+, and solid circles represent 1 mM MC, 1.4 mM Ca^2+. […] Cells were incubated in medium with 1.4 mM Ca^2+ and MC for 4 hours, then were incubated with MTT (0.5 mg/ml in medium) for a further 4 hours before determination of formazan production.
Primary mouse keratinocytes were isolated from BALB/c newborn mouse skin. Primary keratinocytes, the benign neoplastic keratinocyte cell lines 308 and SP-1 (Strickland et al, Cancer Res., 48, 165-169, 1988) and the mouse squamous cell carcinoma line 1-7 (Greenhalgh et al., Proc. Natl. Acad. Sci., 87, 643-647, 1990) were grown in Eagle's minimal essential medium with 8% fetal calf serum (FCS) (chelexed) and penicillin 20 iu/ml, streptomycin 20 ug/ml (P/S). Unless otherwise indicated, the Ca^2+ concentration in medium was adjusted to 0.05 mM (Hennings et al., Cells, 19, 245-254, 1980). A431 human epidermoid carcinoma cells were obtained from ATCC, Rockville, Md., and were routinely passaged in DMEM with 10% FCS, P/S, glutamine (2 mM) and pyruvate (1 mM). SQCC-Y1 human squamous carcinoma cells and non-tumorigenic HPV 18 and SV 40 infected human keratinocytes were kindly donated by Dr. James Rheinwald of Harvard University, Boston, Mass. and Dr. Richard Schlegel of Georgetown University, Washington D.C. respectively. Human cells were cultured in DMEM/Ham's F12 1:1, 10% FCS, P/S and epidermal growth factor 10 ng/ml.
Primary mouse keratinocytes were incubated with MC for 0, 0.5, 1, 4 and 48 hours and were processed as follows.
as §1
Cells were seeded at low density and were treated with MC for 3 days. Cells were then counted and increase in cell number was compared to untreated controls, or cells were processed for cross-linked protein.
Inhibitors were added 30 mins before MC or stsp (FIG. 6). Cross-linked protein was measured by the cornified envelope assay, described in Example 2.

The subject of experiment [4] is transglutaminase. Conditions: Dlugosz and Yuspa, Cancer Res., 51, 4677-4684, 1991; cited from earlier work.

Turning to `COC(=O)c1cc2ccc(O)c(O)c2cn1.Cl` [67F-36-A, 7,8-Dihydroxyisoquinoline-3-carboxylic acid methyl ester hydrochloride], the “cross-linked protein production by MC derivatives” value (shortened to “cross-linked protein production”) in experiment [1] is “inactive”.

Turning to `COC(=O)c1ccc2c(O)c(O)ccc2c1` [67G-146-A, 5,6-Dihydroxy-2-naphthoic acid methyl ester], in experiment [1], the “cross-linked protein production” value is reported as “active” and the potency in cross-linking entry is “most potent”. Besides, in experiment [1] (listed as 67G-146A), the “cross-linked protein production” value is “clearly exhibit protein cross-linking activity”. Take `O=C(/C=C/c1ccc(O)c(O)c1)OCCc1ccccc1` [67H-42-A, Caffeic acid β-phenylethyl ester]: the “cross-linked protein production” value in experiment [1] is “inactive”. With `O=C(CCc1ccc(O)c(O)c1)OCCc1ccccc1` [67H-69-A, 3-(3,4-Dihydroxyphenyl) propanoic aid β-phenylethyl ester], in experiment [1], the “cross-linked protein production” value is recorded as “active” and the potency in cross-linking entry was “most potent”. Besides, the “cross-linked protein production” value in experiment [1] (listed as 67H-69A) is given as “clearly exhibit protein cross-linking activity”. On to `O=C(C=Cc1cc(O)c(O)cc1O)OCCc1ccccc1` [67H-98-A, 2,4,5-Trihydroxycinnamic acid β-phenylethyl ester], for which, in experiment [1], the “cross-linked protein production” value is listed as “active” and the potency in cross-linking result is on record as “most potent”. Besides, in experiment [1] (listed as 67H-98A), the “cross-linked protein production” value was “clearly exhibit protein cross-linking activity”.

For `O=C(C=Cc1cc(O)ccc1O)OCCc1ccccc1` [67H-124-A, 2.5-dihydroxycinnamic acid β-phenylethyl ester], in experiment [1], the “cross-linked protein production” value was “clearly exhibit protein cross-linking activity” and the potency in cross-linking result is reported as “most potent”. In the case of `COC1C=CC=C(C)C(=O)NC2=CC(=O)C=C(C2=O)C(OC)C(C)CC(OC)C(OC)C(C)C=C(C)C1OC(N)=O` (centres unmarked) [herbimycin A], the “ability to induce cross-linking” value in experiment [2] is on record as “unable to induce cross-linking”. On the same count and under the same terms, for `O=C(O)c1cc(N(Cc2ccccc2O)Cc2cc(O)ccc2O)ccc1O` [lavendustin A] the value was “unable to induce cross-linking”.

Turning to `CN[C@@H]1C[C@H]2O[C@@](C)([C@@H]1OC)n1c3ccccc3c3c4c(c5c6ccccc6n2c5c31)C(=O)NC4` [staurosporine, reference compound], in experiment [3], the “cross-linked protein at 4° C. and 37° C.” value was “temperature dependent”. Besides, the “transglutaminase activity (literature)” value in experiment [4] is “increases TGase activity”.
